From patent US20220298186A1, “BIARYL DIALKYL PHOSPHINE OXIDE FPR2 AGONISTS” (BRISTOL-MYERS SQUIBB COMPANY, priority 2019, published 2022)

Columns and labels:
human FPR2 receptors = target: T1, human FPR2 receptors (Homo sapiens, UniProt P25090); test: FPR2 cyclic adenosine monophosphate (cAMP) assay; assay type: cell-based; details: CHO cells overexpressing human FPR2; forskolin 5 μM, IBMX 200 μM; 30 min at rt; inhibition of cAMP production (HTRF); read-out: hFPR2 cAMP2 EC50
T1 sequence (P25090 1-351): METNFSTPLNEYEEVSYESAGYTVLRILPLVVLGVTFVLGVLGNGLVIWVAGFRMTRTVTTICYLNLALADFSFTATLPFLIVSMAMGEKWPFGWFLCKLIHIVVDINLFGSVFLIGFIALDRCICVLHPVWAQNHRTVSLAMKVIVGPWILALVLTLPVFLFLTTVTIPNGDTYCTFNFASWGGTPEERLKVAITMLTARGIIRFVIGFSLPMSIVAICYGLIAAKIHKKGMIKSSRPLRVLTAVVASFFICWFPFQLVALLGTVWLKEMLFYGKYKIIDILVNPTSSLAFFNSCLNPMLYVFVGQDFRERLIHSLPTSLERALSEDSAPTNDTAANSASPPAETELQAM
From the text: (§1) N-formyl peptide receptors (FPRs) are a family of chemo attractant receptors that facilitate leukocyte response during inflammation. FPRs belong to the seven-transmembrane G protein-coupled receptor superfamily and are linked to inhibitory G-proteins (Gi). Three family members (FPR1, FPR2 and FPR3) have been identified in humans and are predominantly found in myeloid cells with varied distribution and have also been reported in multiple organs and tissues. After agonist binding, the FPRs activate a multitude of physiological pathways, such as intra cellular signaling transduction, Ca^2+ mobilization and transcription. The family interacts with a diverse set of ligands that includes proteins, polypeptides and fatty acid metabolites which activate both pro-inflammatory and pro-resolution downstream responses. FPR2 and FPR1 Cyclic Adenosine Monophosphate (cAMP) Assays were used to measure the activity of the compounds in this patent.
(§2) FPR2 and FPR1 Cyclic Adenosine Monophosphate (cAMP) Assays. A mixture of forskolin (5 μM final for FPR2 or 10 μM final for FPR1) and IBMX (200 μM final) were added to 384-well Proxiplates (Perkin-Elmer) pre-dotted with test compounds in DMSO (1% final) at final concentrations in the range of 0.020 nM to 100 μM. Chinese Hamster Ovary cells (CHO) overexpressing human FPR1 or human FPR2 receptors were cultured in F-12 (Ham's) medium supplemented with 10% qualified FBS, 250 μg/mL zeocin and 300 μg/mL hygromycin (Life Technologies). Reactions were initiated by adding 2,000 human FPR2 cells per well or 4,000 human FPR1 cells per well in Dulbecco's PBS (with calcium and magnesium) (Life Technologies) supplemented with 0.1% BSA (Perkin-Elmer). The reaction mixtures were incubated for 30 min at rt. The level of intracellular cAMP was determined using the HTRF HiRange cAMP assay reagent kit (Cisbio) according to manufacturer's instruction. Solutions of cryptate conjugated anti-cAMP and d2 flurorophore-labelled cAMP were made in a supplied lysis buffer separately. Upon completion of the reaction, the cells were lysed with equal volume of the d2-cAMP solution and anti-cAMP solution. After a 1-h rt incubation, time-resolved fluorescence intensity was measured using the Envision (Perkin-Elmer) at 400 nm excitation and dual emission at 590 nm and 665 nm. A calibration curve was constructed with an external cAMP standard at concentrations ranging from 1 μM to 0.1 μM by plotting the fluorescent intensity ratio from 665 nm emission to the intensity from the 590 nm emission against cAMP concentrations. The potency and activity of a compound to inhibit cAMP production was then determined by fitting to a 4-parametric logistic equation from a plot of cAMP level versus compound concentrations.
(§3) The examples disclosed below were tested in the FPR2 and FPR1 cAMP assay described above and found having FPR2 and/or FPR1 agonist activity. Table 1 below lists EC50 values in the FPR2 and FPR1 cAMP assays measured for the following examples.

human FPR1 receptors = target: T2, human FPR1 receptors (Homo sapiens, UniProt P21462); test: FPR1 cyclic adenosine monophosphate (cAMP) assay; assay type: cell-based; details: CHO cells overexpressing human FPR1; forskolin 10 μM, IBMX 200 μM; 30 min at rt; inhibition of cAMP production (HTRF); read-out: hFPR1 cAMP EC50
T2 sequence (P21462 1-350): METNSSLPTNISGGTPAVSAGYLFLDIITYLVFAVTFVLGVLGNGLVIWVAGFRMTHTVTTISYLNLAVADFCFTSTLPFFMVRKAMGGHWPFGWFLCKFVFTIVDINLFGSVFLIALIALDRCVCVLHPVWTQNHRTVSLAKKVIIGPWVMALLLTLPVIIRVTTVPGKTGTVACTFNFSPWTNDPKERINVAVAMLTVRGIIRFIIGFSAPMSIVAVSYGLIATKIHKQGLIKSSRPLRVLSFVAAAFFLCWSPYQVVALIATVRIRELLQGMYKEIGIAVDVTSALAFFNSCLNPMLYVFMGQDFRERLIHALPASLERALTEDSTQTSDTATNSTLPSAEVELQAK
From the text: as §1, §2, §3

## CP(C)(=O)c1ccccc1-c1ccc(N2CCC[C@@H](NC(=O)Nc3ccc(OC(F)(F)F)cc3F)C2=O)c(F)c1F [Example 16, 3-[(3R)-1-[2′-(Dimethylphosphoryl)-2,3-difluoro-[1,1′-biphenyl]-4-yl]-2-oxopiperidin-3-yl]-1-[2-fluoro-4-(trifluoromethoxy)phenyl] urea]
Human FPR2 receptors
  EC50: 8.4 nM
Human FPR1 receptors
  EC50: 1800 nM

## CP(C)(=O)c1ccccc1-c1ccc(N2CCC[C@@H](NC(=O)Nc3ccc(C(F)(F)F)cc3F)C2=O)c(F)c1F [Example 2, 3-[(3R)-1-[2′-(Dimethylphosphoryl)-2,3-difluoro-[1,1′-biphenyl]-4-yl]-2-oxopiperidin-3-yl]-1-[2-fluoro-4-(trifluoromethyl)phenyl] urea]
Human FPR2 receptors
  EC50: 0.18 nM
Human FPR1 receptors
  EC50: 300 nM
